Test results published in ChEMBL document CHEMBL4699551, “Bromotryptamine and Imidazole Alkaloids with Anti-inflammatory Activity from the Bryozoan Flustra foliacea” (J Nat Prod, 2020).
The source made the active and inactive calls. The calls are words filed in the database; no cut-off is given here.

Key:
Dendritic cell [1] = test: Antiinflammatory activity in human monocytes-derived dendritic cells assessed as decrease in IL-12p40 secretion at 10 ug/ml after 24 hrs by ELISA method relative to control; assay type: functional
Dendritic cell [2] = test: Antiinflammatory activity in human monocytes-derived dendritic cells assessed as increase in IL-10 secretion at 10 ug/ml after 24 hrs by ELISA method relative to control; assay type: functional
Dendritic cell [3] = test: Cytotoxicity against human monocytes-derived dendritic cells assessed as reduction in cell viability after 10 ug/ml after 24 hrs by trypan blue staining based assay; settings: dose 10 µg/ml
Dendritic cell [4] = test: Antiinflammatory activity in human monocytes-derived dendritic cells assessed as decrease in IL-12p40 secretion after 24 hrs by ELISA method relative to control; assay type: functional, cell-based

For `C=CC(C)(C)[C@@]1(CCNC)C(=O)Nc2cc(Br)ccc21`, the Activity (Dendritic cell [1]; dose 10.0 µg/ml) was “inactive” and the Activity (Dendritic cell [2]; dose 10.0 µg/ml) was “inactive”.
With `CC(C)=CC[C@@]12CCN(C)[C@@H]1Nc1cc(Br)ccc12` the Activity (Dendritic cell [1]; dose 10.0 µg/ml) was “inactive” and the Activity (Dendritic cell [2]; dose 10.0 µg/ml) was “inactive”.
Molecule `CC1=C[C@H]2[C@@H]([C@@H](c3[nH]c4cc(Br)ccc4c3CCN(C)C)[C@]34CC[N+](C)(C)[C@]23Nc2cc(Br)ccc24)C(C)(C)C1` (relative stereo) has an Activity (Dendritic cell [2]; dose 10 µg/ml) of 19%.
`C=CC(C)(C)[C@@]12CCN[C@@H]1Nc1cc(Br)ccc12` was tested, and the Activity (Dendritic cell [1]; dose 10.0 µg/ml) was “inactive” and the Activity (Dendritic cell [2]; dose 10.0 µg/ml) was “inactive”.
For `C=CC(C)(C)c1c(CCNC)c2ccc(Br)cc2n1C.O=C(O)C(F)(F)F`, the Activity (Dendritic cell [1]; dose 10 µg/ml) was 45% and the Activity (Dendritic cell [3]) was “Non-Toxic”.
For `C=CC(C)(C)C(=O)Nc1cc(Br)ccc1C(=O)O`, the Activity (Dendritic cell [1]; dose 10 µg/ml) was 45% and the Activity (Dendritic cell [3]) was “Non-Toxic”.
`CNCCc1cn(CC=C(C)C)c2cc(Br)ccc12.O=C(O)C(F)(F)F` was tested, and the Activity (Dendritic cell [1]; dose 10 µg/ml) was 45%, the Activity (Dendritic cell [3]) was “Non-Toxic” and the IC50 (Dendritic cell [4]) was 2.9 µM.
In the case of `CN(C)CCc1c[nH]c2cc(Br)ccc12.O=C(O)C(F)(F)F`, the Activity (Dendritic cell [1]; dose 10 µg/ml) is reported as 45% and the Activity (Dendritic cell [3]) is reported as “Non-Toxic”.
With `CC(C)C(=O)c1c(CCN(C)C)c2ccc(Br)cc2[nH]c1=O` the Activity (Dendritic cell [1]; dose 10 µg/ml) was 45% and the Activity (Dendritic cell [3]) was “Non-Toxic”.
In the case of `CC(C)=CCN1c2cc(Br)ccc2[C@]2(CC=C(C)C)CCN(C)[C@H]12`, the Activity (Dendritic cell [1]; dose 10.0 µg/ml) is reported as “inactive” and the Activity (Dendritic cell [2]; dose 10.0 µg/ml) is reported as “inactive”.
`C/C(=C\C(=O)NCCc1c[nH]cn1)CCCC(C)(C)O` showed an Activity (Dendritic cell [2]; dose 10 µg/ml) of 19%.
In the case of `CC(C)=CC[C@@]12CCN(C)[C@@H]1N(CC(O)C(C)(C)O)c1cc(Br)ccc12` (some centres not stated), the Activity (Dendritic cell [1]; dose 10.0 µg/ml) is reported as “inactive” and the Activity (Dendritic cell [2]; dose 10.0 µg/ml) is reported as “inactive”.
`C=CC(C)(C)[C@@]12CCN(C)[C@@H]1N(CC=C(C)C)c1cc(Br)ccc12` was tested, and the Activity (Dendritic cell [1]; dose 10.0 µg/ml) was “inactive” and the Activity (Dendritic cell [2]; dose 10.0 µg/ml) was “inactive”.
With `C=CC(C)(C)c1[nH]c2cc(Br)ccc2c1CC[N+]1(C)CCOC1` (configuration not stated) the Activity (Dendritic cell [1]; dose 10 µg/ml) was 45% and the Activity (Dendritic cell [3]) was “Non-Toxic”.
In the case of `CO[C@H](c1[nH]c2cc(Br)ccc2c1CCN(C)C)[C@@H](O)C(C)(C)O`, the Activity (Dendritic cell [1]; dose 10 µg/ml) is reported as 45% and the Activity (Dendritic cell [3]) is reported as “Non-Toxic”.
For `CC(C)=CC[C@@]12CCN(C)[C@@H]1Nc1c(Br)ccc(O)c12`, the Activity (Dendritic cell [1]; dose 10.0 µg/ml) was “inactive” and the Activity (Dendritic cell [2]; dose 10.0 µg/ml) was “inactive”.
For `C=CC(C)(C)[C@@]12CCN(C)[C@@H]1N(C(OC)C(O)C(C)(C)O)c1cc(Br)ccc12` (some centres not stated), the Activity (Dendritic cell [1]; dose 10.0 µg/ml) was “inactive” and the Activity (Dendritic cell [2]; dose 10.0 µg/ml) was “inactive”.
With `C=CC(C)(C)[C@@]12CCN(C)[C@@H]1N(C(O)C(O)C(C)(C)O)c1cc(Br)ccc12` (some centres not stated) the Activity (Dendritic cell [1]; dose 10.0 µg/ml) was “inactive” and the Activity (Dendritic cell [2]; dose 10.0 µg/ml) was “inactive”.
In the case of `CNCC[C@]1(O)C(=O)N(CC=C(C)C)c2cc(Br)ccc21`, the Activity (Dendritic cell [1]; dose 10.0 µg/ml) is reported as “inactive” and the Activity (Dendritic cell [2]; dose 10.0 µg/ml) is reported as “inactive”.
In the case of `C=CC(C)(C)[C@@]12CCN(C)[C@@H]1N(CC(O)C(C)(C)O)c1cc(Br)ccc12` (some centres not stated), the Activity (Dendritic cell [1]; dose 10.0 µg/ml) is reported as “inactive” and the Activity (Dendritic cell [2]; dose 10.0 µg/ml) is reported as “inactive”.
With `CC(C)=CC[C@@]12CCN(C)[C@@H]1N(C(O)C(O)C(C)(C)O)c1cc(Br)ccc12` (some centres not stated) the Activity (Dendritic cell [1]; dose 10.0 µg/ml) was “inactive” and the Activity (Dendritic cell [2]; dose 10.0 µg/ml) was “inactive”.
`O=C(O)C(F)(F)F.O=Cc1c[nH]c2cc(Br)ccc12` was tested, and the Activity (Dendritic cell [1]; dose 10 µg/ml) was 45% and the Activity (Dendritic cell [3]) was “Non-Toxic”.
In the case of `C=CC(C)(C)[C@@]12CCN(C)[C@@H]1N(C)c1cc(Br)ccc12`, the Activity (Dendritic cell [1]; dose 10.0 µg/ml) is reported as “inactive” and the Activity (Dendritic cell [2]; dose 10.0 µg/ml) is reported as “inactive”.
`C=CC(C)(C)[C@@]12CCN(C)C1=Nc1cc(Br)ccc12` was tested, and the Activity (Dendritic cell [1]; dose 10.0 µg/ml) was “inactive” and the Activity (Dendritic cell [2]; dose 10.0 µg/ml) was “inactive”.
